Assay results published in patent US6030823A, “D-aminoacylase” (Daicel Chemical Industries, Ltd., priority 1998, dated 2000).

tested on: D-aminoacylase derived from Sebekia benihana IFO14309; test: Substrate specificity of the aminoacylase; assay type: biochemical; conditions: 20 mM substrate, 50 mM Tris-HCl pH 7.5, 30° C., 5 min
Method: The substrate specificity of the aminoacylase was examined using N-acetyl-D-methionine, N-acetyl-D-alanine, N-acetyl-D-aspartic acid, N-acetyl-D-leucine, N-acetyl-D-phenylalanine, N-acetyl-D-tryptophan, N-acetyl-D-valine, N-acetyl-L-leucine, N-acetyl-L-methionine, and N-acetyl-L-valine as substrates. The enzyme activity was assayed as follows. A 0.050-ml aliquot of an enzyme solution was added to 0.950 ml of 20 mM N-acetyl-D(or L)-amino acid in 50 mM Tris-HCl buffer (pH 7.5) and incubated at 30° C. for 5 min. The reaction was then stopped by adding 0.50 ml of a TCA solution to the reaction mixture. The relative activity is shown in Table 5, taking the activity for N-acetyl-L-methionine as 100%.

In order of falling Relative activity:
1. CC(=O)N[C@H](CC(C)C)C(=O)O [N-Ac-D-Leu, N-acetyl-D-leucine]  255%
2. CSCC[C@@H](NC(C)=O)C(=O)O [N-Ac-D-Met, N-acetyl-D-methionine]  100%
3. CC(=O)N[C@@H](C(=O)O)C(C)C [N-Ac-D-Val, N-acetyl-D-valine]  33%
4. CSCC[C@H](NC(C)=O)C(=O)O [N-Ac-L-Met, N-acetyl-L-methionine]  0%
5. CC(=O)N[C@H](C(=O)O)C(C)C [N-Ac-L-Val, N-acetyl-L-valine]  0%
6. CC(=O)N[C@@H](CC(C)C)C(=O)O [N-Ac-L-Leu, N-acetyl-L-leucine]  0%
